# Reference: paper PMC3954873, “Enhanced Thermal Stability and Hydrolytic Ability of Bacillus subtilis Aminopeptidase by Removing the Thermal Sensitive Domain in the Non-Catalytic Region” (PLoS ONE, 2014)
# Tests used:
# BSAP = target: T1, BSAP (Bacillus subtilis, UniProt P25152); assay: steady-state hydrolysis kinetics, non-linear regression; assay type: biochemical; settings: free enzyme; assay as in previous study, conditions not printed here
# T1 construct: gene ywaD; host B. subtilis WB600; purified as in previous study
# From the text: steady-state hydrolysis kinetics, non-linear regression on BSAP
# BSAP-ΔPA = target: T2, BSAP-ΔPA (Bacillus subtilis, UniProt P25152, DEL101-225, form not given); assay: as above; assay type: biochemical; settings: free enzyme; assay as in previous study, conditions not printed here
# T2 construct: gene ywaD; protease-associated domain (101-225) deleted by inverse PCR; 330 residues before signal peptide removal; plasmid PMA5, host B. subtilis WB600; purified from culture supernatant
# From the text: steady-state hydrolysis kinetics, non-linear regression on BSAP-ΔPA
# T2 sequence (P25152 other isoform, or with tags, fused parts or gaps DEL101-225): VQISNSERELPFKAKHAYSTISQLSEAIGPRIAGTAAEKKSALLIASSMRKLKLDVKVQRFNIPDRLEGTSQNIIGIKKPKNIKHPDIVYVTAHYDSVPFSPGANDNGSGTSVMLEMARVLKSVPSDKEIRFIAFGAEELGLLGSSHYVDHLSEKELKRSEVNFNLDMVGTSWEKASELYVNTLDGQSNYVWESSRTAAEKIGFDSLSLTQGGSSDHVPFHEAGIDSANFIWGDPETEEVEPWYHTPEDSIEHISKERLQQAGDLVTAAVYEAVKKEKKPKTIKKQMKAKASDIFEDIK
# T1 sequence (P25152 32-455): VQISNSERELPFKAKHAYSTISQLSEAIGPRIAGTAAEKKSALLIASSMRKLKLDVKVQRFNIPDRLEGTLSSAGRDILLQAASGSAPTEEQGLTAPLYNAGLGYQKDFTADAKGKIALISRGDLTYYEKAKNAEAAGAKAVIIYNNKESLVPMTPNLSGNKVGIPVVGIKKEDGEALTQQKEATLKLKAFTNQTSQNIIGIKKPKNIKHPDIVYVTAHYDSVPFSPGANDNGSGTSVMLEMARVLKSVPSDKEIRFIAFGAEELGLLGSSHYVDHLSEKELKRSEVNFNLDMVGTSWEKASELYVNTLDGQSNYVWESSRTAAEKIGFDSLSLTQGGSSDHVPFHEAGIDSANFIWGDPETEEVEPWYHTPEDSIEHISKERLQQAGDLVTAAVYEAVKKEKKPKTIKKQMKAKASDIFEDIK
structure (smiles),measurement,setting,value
CC(C)C[C@H](N)C(=O)Nc1ccc([N+](=O)[O-])cc1 [Leu-pNA],K m,BSAP,2.52 ± 0.11 mmol
same,K m,BSAP-ΔPA,2.43 ± 0.23 mmol
